Legend:
[1] = cited from earlier work
[2] = tested on: E. coli expressing the A. marina VHPO gene; experiment: Bromoform production by E. coli expressing A. marina VHPO with 1,3-dicarbonyl substrates of Table 4; assay type: cell-based, Escherichia coli; settings: 1 mM substrate, 100 mM H2O2, 24 hours room temperature; FIG. 8
Description: A sample with no additional substrate was also run as a control experiment. Samples (1 mL) were incubated in sealed tubes at room temperature for 24 hours. 10 μL samples from each were withdrawn and added to 1 mL brine to improve phase separation16 and placed in a 20 mL GC vial, which were then sealed with magnetic screw caps (Agilent). The head space of each sample was analyzed by solid phase microextraction (SPME) GC-MS.
To test for bromoform production E. coli cells were resuspended in 1 mL water/100 mL culture volume and 20% v/v of this cell suspension was added to a solution of substrate listed in Table 4 in addition to 100 mM HEPES (pH 7.4), 20 mM KBr, 1 mM Na3VO4, and 100 mM H2O2. Samples (1 mL) were incubated in sealed tubes at room temperature for 24 hours. 10 μL samples from each were withdrawn and added to 1 mL brine in a GC vial before sealing. The head space of each sample was analysed by solid phase microextraction (SPME) GC/MS as above. Bromoform was quantified by comparison with a standard curve prepared from authentic samples of bromoform as described above.

[3] = tested on: E. coli transformed to express VHPO; experiment: Bromoform biosynthesis in growing E. coli cultures expressing VHPO with inhibitors or oleic acid; assay type: cell-based, Escherichia coli; settings: for production of bromoform in culture: 0.1% oleic acid, 1% tergitol, with amino-triazole to inhibit catalase; for bromoform observed in culture: 0.5 g/L tannic acid together with 10 mM 3-amino-1,2,4-triazole, 18 hours
Description: (§1) VHPO was expressed in E. coli isolate BL21 (DE3) as described above. Alongside IPTG (0.2 mM) the culture was also supplemented with 50 mM KBr, 1 mM Na3VO4, 10 mM 3-amino,1,2,4-triazole, and 0.5 g/L tannic acid or 0.1% oleic acid (emulsified with 1% tergitol (Merck, Ma USA)). Typically, 10 mL LB cultures were grown in 50 mL tubes with the lids closed. Vented tubes led to the loss of bromoform by evaporation. Cells were harvested by centrifugation and resuspended in 1 mL of brine (6 M NaCl), transferred into 20 mL headspace GC vials and sealed with a magnetic screw cap before analysis by SPME-GC-MS.
This strategy utilizes tannic acid to inhibit FabG to promote the accumulation acetoacyl-acyl-carrier-proteins (Wu et al., 2010), alongside 3-amino-1,2,4-triazol to inhibit catalase and promote the accumulation of H2O2(Meir and Yagil, 1985). FabG is β-ketoacyl-ACP reductase [EC 1.1.1.100], an enzyme that catalyses the reduction of acetoacyl-acyl carrier proteins during fatty acid synthesis. Catalase consumes the intracellular H2O2 which is required for VHPO activity. Both inhibitors were added to cultures E. coli transformed to express VHPO upon induction with IPTG. The VHPO gene from the marine cyanobacterium Acaryochloris marina MBIC110174 was synthesized by Epoch Life Science Inc. (Tx, USA) using the published gene sequence (GenBank Accession CP000828-nucleotides 5020736-5018817). This gene sequence was codon optimized for E. coli expression and cloned into expression vector pACYCDuet1 under the regulatory control of a LacI repressor and T7 promoter and terminator sequences. Cell growth was allowed to continue for 18 hours in the presence of these molecules with the addition of KBr and Na3VO4, before harvesting the cells by centrifugation and analysis of bromoform levels.
as §1, with “Alongside” for “VHPO was expressed in E. coli isolate BL21 (DE3) as described above. Alongside”

[4] = tested on: S. cerevisiae BY4741 transformed with pRS-ePST1-AmVHPO; experiment: Bromoform synthesis by S. cerevisiae with peroxisome-targeted VHPO in SDUGGO media; assay type: cell-based, Saccharomyces cerevisiae; settings: 0.1% oleic acid together with 3-amino-1,2,4-triazol
Description: 10 mL seed cultures of were inoculated with a single colony of BY4741 transformed with pRS-ePST1-AmVHPO in SD and grown at 220 rpm, 30° C. overnight. These were used to inoculate 10 mL cultures of SDUGGO media (uracil (0.67% yeast nitrogenous base without amino acids, 0.192% Merck yeast synthetic dropout medium supplement without uracil, 10% glycerol, 0.1% glucose, 100 mM KBr, 1 mM Na3VO4, 100 mM MOPS (pH 6.5), 0.1% oleic acid emulsified in 1% tergitol) at an initial OD600 of 2.0, and incubated for a further 24 hours at 220 rpm, 30° C. As with E. coli, samples were grown in 50 mL tubes with the lids closed to minimize the loss of bromoform by evaporation. Cells were harvested by centrifugation and resuspended in 1 mL of brine (6 M NaCl), transferred into 20 mL headspace GC vials and sealed with a magnetic screw cap before analysis by SPME-GC-MS.
With this plasmid in hand, the media was adapted to allow for maximum flux through beta-oxidation, incorporating both oleic acid to induce β-oxidation and glycerol as a non-repressing carbon source. A small amount of glucose (0.1%) was also included to stimulate initial cell growth, alongside Mops buffer (pH 6.5), which improved bromoform production compared with unbuffered cultures. KBr and Na3VO4 were also added to allow for VHPO activity.

[5] = molecular target: T1, VHPO extracted from Corallina officinalis (Corallina officinalis, UniProt Q8LLW7); experiment: Bromoform synthesis by extracted enzyme; assay type: biochemical; settings: 0.1 U VHPO, 10 mM substrate, 50 mM KBr, 50 mM H2O2
T1 construct: VHPO extracted from Corallina officinalis (Sigma); purchased Sigma; host or cells: extracted from the red alga Corallina officinalis (natural source)
T1 sequence (Q8LLW7 1-598): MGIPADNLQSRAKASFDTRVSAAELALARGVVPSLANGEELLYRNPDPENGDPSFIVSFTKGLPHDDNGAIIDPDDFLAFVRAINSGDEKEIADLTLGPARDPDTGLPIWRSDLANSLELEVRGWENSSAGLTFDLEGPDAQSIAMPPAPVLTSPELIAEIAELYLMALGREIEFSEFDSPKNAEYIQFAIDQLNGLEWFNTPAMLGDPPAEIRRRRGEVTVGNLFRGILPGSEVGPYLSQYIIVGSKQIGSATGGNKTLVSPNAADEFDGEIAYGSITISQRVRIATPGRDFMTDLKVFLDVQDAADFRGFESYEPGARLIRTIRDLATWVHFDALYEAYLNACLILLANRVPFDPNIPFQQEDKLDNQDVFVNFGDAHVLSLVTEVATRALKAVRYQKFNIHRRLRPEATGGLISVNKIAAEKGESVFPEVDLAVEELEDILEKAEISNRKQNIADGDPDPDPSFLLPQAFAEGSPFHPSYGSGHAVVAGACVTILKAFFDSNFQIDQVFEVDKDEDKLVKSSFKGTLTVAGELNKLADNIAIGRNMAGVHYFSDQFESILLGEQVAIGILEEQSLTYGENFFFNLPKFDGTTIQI
Description: The whole reaction (100 μL) was transferred to a GC-Headspace vial and left at room temperature until analysis by SPME-GCMS as before. Relative bromoform levels were assessed as described above.

[6] = tested on: E. coli expressing the A. marina VHPO gene; experiment: Bromoform production by E. coli cells expressing A. marina VHPO with Table 3 substrates (SPME-GC/MS); assay type: cell-based, Escherichia coli; settings: 1 mM substrate, 50 mM H2O2, 24 hours room temperature; compared with the other samples of Table 3
Description: Transformed E. coli were then grown in LB with 30 μg/mL chloramphenicol at 37° C. 220 rpm, until OD600 ˜0.6. IPTG 0.2 mM was then added and the cultures transferred to 28° C. with shaking at 220 rpm for a further 18 hours. Cells were harvested by centrifugation and kept at −20° C. before further use.
To test for bromoform production E. coli cells were resuspended in 1 mL water/100 mL culture volume and 20% v/v of this cell suspension was added to a solution of substrate listed below in Table 3, 100 mM HEPES (pH 7.4), 20 mM KBr, 1 mM Na3VO4, and 50 mM H2O2. Samples (100 μL) were incubated in sealed GC vials at room temperature for 24 hours. The head space of each sample was analysed by solid phase microextraction (SPME) GC/MS using a 7890A series gas chromatograph, a 5975C inert XL MSD mass selective detector and a MPS2 Gerstel multipurpose autosampler. Bromoform was identified in samples by comparison of the retention time with an authentic standard (Sigma, USA) and by mass spectral matching using the NIST/EPA/NIH Mass Spectral Library (version 2014). Relative bromoform quantities were measured by integration of the m/z=250 signal in extracted ion chromatograms generated using Agilent Mass Hunter software (version 10.0).

[7] = tested on: E. coli expressing the A. marina VHPO gene; experiment: Time course of bromoform production from acetylacetone by the E. coli cell suspension with repeated H2O2 addition; assay type: cell-based, Escherichia coli
Description: It was hypothesized that with sufficient hydrogen peroxide supply full conversion to bromoform could be achieved. To this end an additional reaction was set up with 10% E. coli cell suspension 100 mM HEPES (pH 7.4), 100 mM KBr, 1 mM Na3VO4, and 400 mM H2O2 added to initiate the reaction, then again after 2 and 4 hours. 10 μL of this reaction was sampled at 0, 20, 60, 120, 180, 240, and 360 minutes, the reaction was stopped by addition of 1 mL of ice cold brine and samples were stored in sealed GC vials at −20° C. before analysis by SPME-GC/MS as above. Bromoform was quantified by comparison with a standard curve prepared from authentic samples of bromoform, added to control samples (identical to the reaction, except containing no bromide), to account for matrix effects. The time course and standard curve is shown below in FIG. 7.

CCOC(=O)CC(C)=O [ethyl acetoacetate]
pKa (H2O solvent reference) [1]: 10.7 (Brodwell, personal
bromoform production [2]: increase in bromoform production

CCCCCCCC/C=C\CCCCCCCC(=O)O [oleic acid]
production of bromoform in culture [3]: trace amounts
bromoform detected in the cell pellet [4]: only when both oleic acid and 3-amino-1,2,4-triazol were added

CC1(C)CC(=O)CC(=O)C1 [5,5-dimethyl-1,3-cyclohexanedione]
pKa (H2O solvent reference) [1]: 5.2 (Brodwell, personal
bromoform production [2]: increase in bromoform production
increase in bromoform concentration relative to acetone ([5]; listed as dimedone): 51 fold
increase in bromoform concentration relative to acetone ([5]; listed as dimidone): up to 50 fold

CC(=O)CC(C)=O [acetylacetone]
bromoform production [2]: increase in bromoform production
increase in bromoform production [6]: 10 fold
amount of bromoform synthesised ([7]; 400 mM H2O2 added at start and again after 2 and 4 hours): 5 mg/mL
conversion to bromoform (yield based on acetylacetone) ([7]; after three hours, 400 mM H2O2 added at start and again after 2 and 4 hours): 97%
part of acetylacetone converted rapidly to bromoform ([7]; initial phase of the reaction): Approximately half

Nc1nc[nH]n1 [3-amino-1,2,4-triazol]
production of bromoform in culture [3]: trace amounts
bromoform observed in culture [3]: only observed when both inhibitors were added
bromoform detected in the cell pellet [4]: only when both oleic acid and 3-amino-1,2,4-triazol were added

CCC(=O)CC(=O)CC [3,5-heptanedione]
bromoform production [2]: increase in bromoform production

O=C(OC[C@H]1O[C@@H](OC(=O)c2cc(O)c(O)c(OC(=O)c3cc(O)c(O)c(O)c3)c2)[C@H](OC(=O)c2cc(O)c(O)c(OC(=O)c3cc(O)c(O)c(O)c3)c2)[C@@H](OC(=O)c2cc(O)c(O)c(OC(=O)c3cc(O)c(O)c(O)c3)c2)[C@@H]1OC(=O)c1cc(O)c(O)c(OC(=O)c2cc(O)c(O)c(O)c2)c1)c1cc(O)c(O)c(OC(=O)c2cc(O)c(O)c(O)c2)c1 [tannic acid]
bromoform observed in culture [3]: only observed when both inhibitors were added

Reference: patent US20250051805A1, “METHODS” (Commonwealth Scientific and Industrial Research Organisation, priority 2021, published 2025)
